Assay results: patent US10406169B2, “Methods of monitoring estriol therapy” (The Regents of the University of California, priority 2015, dated 2019)

Legend:
Assay type in all cases: in vivo, human
[1] = Serum estriol levels in the clinical trial
Source text: Safety assessments, including clinical, blood laboratory safety testing and assessments of estriol levels, occurred at months 0, 3, 6, 12, 18, and 24. On study blood tests included complete blood count (CBC) with differential and platelets; chemistry panel including sodium, potassium, creatinine, BUN, glucose, total protein, albumin, bilirubin (total), alkaline phosphatase, AST (SGOT), and ALT (SGPT), and lipid profile (HDL, LDL and triglycerides, cholesterol. Gynecologic exams were done at month 0, 6, 18 and at month 24 exit, with uterine ultrasounds at months 6, 18 and at month 24 exit. Mammograms were done in screening and at month 24 exit. Adverse event analysis was based on the percentage of patients who discontinued the study and the percentage of patients who discontinued the study possibly due to adverse events.
Free estriol levels were also measured and followed a similar pattern of change within individuals as total levels, with absolute free levels a fraction of the magnitude of the absolute total levels as expected.

[2] = tested on: relapsing-remitting multiple sclerosis; experiment: Gadolinium enhancing lesions on brain MRI; parameters: Enhancing lesion volume, mean ± SD: unit not given here
Experimental: (§1) Mixed effects negative binomial regression model and linear mixed effects model were used to compare enhancing lesion volume (log-transformed) between treatment groups at all follow-ups, and mixed effects logistic model was used to compare the number of subjects positive for gadolinium enhancing lesions. Linear mixed effects model was carried out to compare the percent change in whole gray matter and cortical gray matter between treatment groups. For the exploratory endpoints of EDSS, PASAT, fatigue, depression, quality of life and brain volume measures, linear mixed effects model was used to compare treatment groups at 12 and 24 months.
(§2) Dual-echo fast spin echo: TR10000, TE12/95, 50 slices, 1×1×3 mm. Fluid attenuated inversion recovery (FLAIR): TR10380, TE88, TI88, TI2500, 50 slices, 1×1×3 mm. Minor changes were allowed to accommodate different platforms and field strengths at each site. MRI data in Dicom format were fully anonymized prior to transfer and then uploaded to the central MRI reading center database. Prior to study onset, each site provided a dummy scan utilizing the standardized sequences for review by the central MRI reading center to verify scan quality and fidelity. Quality control was maintained at each site using standard procedures for clinical scanners (daily phantoms, stability testing). Quarterly phantoms were collected from 12 of the 15 sites, most using the standard American College of Radiology (ACR) phatom. One site upgraded from a Siemens 1.5T to a 3.0T in November 2013, resulting in the acquisition of one month 24 scan on the new scanner. One site upgraded from a Phillips Achieva 3.0T to a Pillips Intera 3.0T after the first subject completed month 24. All subsequent studies were performed on the Intera.
Analysis of gadolinium enhancing lesions and T2 lesions were performed as described by Sicotte et al. (Ann. Neurology 52:421 (2002)). Briefly, MRI data was coded by study site and randomization number. The number and volume of enhancing lesions were quantified on the post contrast T1 weighted scans by an experienced investigator who was blind to treatment group using a semi-automated threshold-based algorithm. To assess T2 lesions, all FLAIR images were RF corrected, then intensity normalized and registered into a common space defined by the baseline scan for each individual. All subsequent scans were registered to the baseline exam for spatial normalization using a rigid body model. T2 lesion areas were determined using a semi-automated intensity based segmentation procedure by a trained, experienced researcher verified by a single investigator (NLS).

[3] = tested on: relapsing-remitting multiple sclerosis; experiment: MRI brain volumes (pairwise Jacobian integration)
Experimental: as §1, §2
MRI brain, whole gray matter, whole white matter and cortical gray matter volumes were determined using a pairwise Jacobian integration (PJI) method. Pre-processing for structural T1-weighted images included 1) N3 non-uniformity correction, 2) histogram-based intensity normalization, 3) linear standard space registration using ICBM 2009c nonlinear symmetric template, 4) patch-based brain extraction, and 5) lesion-inpainting. Inputs to PJI were a pair of baseline and follow-up pre-processed structural T1-weighed images. The PJI consisted of 1) linear skull-constrained symmetric registration, 2) halfway transformation and resampling, 3) nonlinear symmetric registration using ANTS, and 4) voxelwise Jacobian determinant calculation on the warp field. Whole gray matter and whole white matter tissue masks were generated by SPM8 Segment function. Additional nonlocal means denoising was applied. For whole brain tissue masks, the whole gray matter and whole white matter masks were combined. For cortical gray matter mask, a standard cortical mask was nonlinearly transformed and merged with gray matter mask. The standard template was the ICBM (ICBM 2009c nonlinear symmetric version), and the nonlinear registration was performed by ANTS. Finally, the Jacobian determinants were averaged within the masks for percent volume change in cortical gray matter, whole gray matter, whole white matter, and whole brain.

[4] = Baseline to 12 months, all patients
[5] = Baseline to 12 months, all patients, listed as Placebo+GA
[6] = Baseline to 12 months, patients with enhancing lesions at baseline
[7] = Baseline to 12 months, patients without enhancing lesions at baseline
[8] = Baseline to 12 months, patients without enhancing lesions at baseline, listed as Placebo+GA
[9] = Baseline to 24 months, all patients
[10] = Baseline to 24 months, patients with enhancing lesions at baseline
[11] = Baseline to 24 months, patients without enhancing lesions at baseline

glatiramer acetate [Placebo + GA]
Serum total estriol level, Mean ± SD ([1]; Month 0): 2.1 ± 2.3 ng/mL
Serum total estriol level, Median ([1]; Month 0): 1.6 ng/mL
Serum estriol concentrations (in words) ([1]; Month 3): did not exceed the estriol assay detection limit
Serum total estriol level, Mean ± SD ([1]; Month 3): 2.1 ± 1.6 ng/mL
Serum total estriol level, Median ([1]; Month 3): 1.8 ng/mL
Serum total estriol level, Mean ± SD ([1]; Month 6): 1.9 ± 1.4 ng/mL
Serum total estriol level, Median ([1]; Month 6): 1.8 ng/mL
Serum total estriol level, Mean ± SD ([1]; Month 12): 2.0 ± 1.4 ng/mL
Serum total estriol level, Median ([1]; Month 12): 1.8 ng/mL
Serum total estriol level, Mean ± SD ([1]; Month 18): 1.8 ± 1.2 ng/mL
Serum total estriol level, Median ([1]; Month 18): 1.8 ng/mL
Serum total estriol level, Mean ± SD ([1]; Month 24): 1.8 ± 1.1 ng/mL
Serum total estriol level, Median ([1]; Month 24): 1.6 ng/mL
Enhancing lesion volume, mean ± SD ([2]; Baseline): 49.9 ± 121.2
Enhancing lesion volume, median ([2]; Baseline): 0
Percentage patients with enhancing lesions % (95% CI) ([2]; Baseline): 29.3 (19.0-39.6) %
Enhancing lesion volume, mean ± SD ([2]; Month 12): 27.4 ± 147.2
Enhancing lesion volume, median ([2]; Month 12): 0
Percentage patients with enhancing lesions % (95% CI) ([2]; Month 12): 21.0 (10.8-31.1) %
Enhancing lesion volume, mean ± SD ([2]; Month 24): 17.9 ± 71.1
Enhancing lesion volume, median ([2]; Month 24): 0
Percentage patients with enhancing lesions % (95% CI) ([2]; Month 24): 14.6 (5.2-23.9) %
Decrease in enhancing lesion volumes ([2]; month 12 vs baseline): 45%
Cortical gray matter baseline volume ([3]; Baseline): 761 ± 42 cc
White matter baseline volume ([3]; Baseline): 640 ± 32 cc
Whole brain baseline volume ([3]; Baseline): 1602 ± 51 cc
Whole gray matter baseline volume ([3]; Baseline): 926 ± 52 cc
Cortical gray matter volume % change, Mean ± SE [3, 4]: −0.74 ± 0.81, %
Cortical gray matter volume % change, median [3, 4]: −0.69%
White matter volume % change, Mean ± SE [3, 4]: −0.21 ± 0.82, %
White matter volume % change, median [3, 4]: −0.15%
Whole brain volume % change, Mean ± SE [3, 4]: −0.49 ± 0.63, %
Whole brain volume % change, median [3, 4]: −0.43%
Whole gray matter volume % change, Mean ± SE [3, 4]: −0.68 ± 0.71, %
Whole gray matter volume % change, median [3, 4]: −0.66%
Cortical gray matter volume % change, Mean ± SE [3, 5]: −0.74%
Whole gray matter volume % change, Mean ± SE [3, 5]: −0.68%
Cortical gray matter volume % change, Mean ± SE [3, 6]: −0.67 ± 0.72, %
Cortical gray matter volume % change, median [3, 6]: −0.69%
White matter volume % change, Mean ± SE [3, 6]: −0.36 ± 1.06, %
White matter volume % change, median [3, 6]: −0.14%
Whole gray matter volume % change, Mean ± SE [3, 6]: −0.65 ± 0.64, %
Whole gray matter volume % change, median [3, 6]: −0.64%
Cortical gray matter volume % change, Mean ± SE [3, 7]: −0.76 ± 0.85, %
Cortical gray matter volume % change, median [3, 7]: −0.73%
White matter volume % change, Mean ± SE [3, 7]: −0.15 ± 0.71, %
White matter volume % change, median [3, 7]: −0.15%
Whole gray matter volume % change, Mean ± SE [3, 7]: −0.70 ± 0.74, %
Whole gray matter volume % change, median [3, 7]: −0.66%
Cortical gray matter volume % change, Mean ± SE [3, 8]: −0.76%
Whole gray matter volume % change, Mean ± SE [3, 8]: −0.70%
Cortical gray matter volume % change, Mean ± SE [3, 9]: −1.05 ± 0.86, %
Cortical gray matter volume % change, median [3, 9]: −0.94%
White matter volume % change, Mean ± SE [3, 9]: −0.52 ± 1.12, %
White matter volume % change, median [3, 9]: −0.54%
Whole brain volume % change, Mean ± SE [3, 9]: −0.77 ± 0.72, %
Whole brain volume % change, median [3, 9]: −0.88%
Whole gray matter volume % change, Mean ± SE [3, 9]: −0.95 ± 0.75, %
Whole gray matter volume % change, median [3, 9]: −0.93%
Cortical gray matter volume % change, Mean ± SE [3, 10]: −0.82 ± 0.80, %
Cortical gray matter volume % change, median [3, 10]: −0.93%
White matter volume % change, Mean ± SE [3, 10]: −0.62 ± 0.97, %
White matter volume % change, median [3, 10]: −0.84%
Whole gray matter volume % change, Mean ± SE [3, 10]: −0.82 ± 0.70, %
Whole gray matter volume % change, median [3, 10]: −0.92%
Cortical gray matter volume % change, Mean ± SE [3, 11]: −1.12 ± 0.88, %
Cortical gray matter volume % change, median [3, 11]: −0.94%
White matter volume % change, Mean ± SE [3, 11]: −0.46 ± 1.17, %
White matter volume % change, median [3, 11]: −0.48%
Whole gray matter volume % change, Mean ± SE [3, 11]: −0.98 ± 0.77, %
Whole gray matter volume % change, median [3, 11]: −0.92%
